Source: US6737383B1, “Herbicidal oxadiazolidines” (priority 1999, dated 2004)

What was measured:
[1] = tested on: wild oat; experiment: Test B pre/postemergence wild oat; assay type: in vivo, Avena fatua
How it was run: (§1)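 Response is a visual 0-to-10 score relative to untreated plants, where 0 means no effect and 10 means complete control, taken twelve to sixteen days after application. Treatments went onto soil at planting and onto foliage of 1- to 4-leaf plants, using a surfactant-containing non-phytotoxic solvent.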

[2] = tested on: velvetleaf; experiment: Test B pre/postemergence velvetleaf; assay type: in vivo, Abutilon theophrasti
How it was run: as §1

[3] = tested on: cocklebur; experiment: Test B pre/postemergence cocklebur; assay type: in vivo, Xanthium strumarium
How it was run: as §1

[4] = tested on: morningglory; experiment: Test B pre/postemergence morningglory; assay type: in vivo, Ipomoea hederacea
How it was run: as §1

[5] = tested on: pigweed; experiment: Test B pre/postemergence pigweed; assay type: in vivo, Amaranthus retroflexus
How it was run: as §1

[6] = tested on: corn; experiment: Test B pre/postemergence corn; assay type: in vivo, Zea mays
How it was run: as §1

[7] = tested on: surinam grass; experiment: Test B pre/postemergence surinam grass; assay type: in vivo, Brachiaria decumbens
How it was run: as §1

[8] = tested on: blackgrass; experiment: Test B pre/postemergence blackgrass; assay type: in vivo, Alopecurus myosuroides
How it was run: as §1

[9] = tested on: crabgrass; experiment: Test B pre/postemergence crabgrass; assay type: in vivo, Digitaria sanguinalis
How it was run: as §1

[10] = tested on: sugar beet; experiment: Test B pre/postemergence sugar beet; assay type: in vivo, Beta vulgaris
How it was run: as §1

[11] = tested on: purple nutsedge; experiment: Test B pre/postemergence purple nutsedge; assay type: in vivo, Cyperus rotundus
How it was run: as §1

[12] = tested on: giant foxtail; experiment: Test B pre/postemergence giant foxtail; assay type: in vivo, Setaria faberii
How it was run: as §1

[13] = tested on: smallflower flatsedge; experiment: Test B flood test smallflower flatsedge; assay type: in vivo, Cyperus difformis
How it was run: (§2)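 Each value is a visual injury score relative to controls, with 10 meaning complete control and 0 no effect. Evaluation took place twelve to sixteen days after the 2-leaf-stage plants were treated and kept in the greenhouse.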

[14] = tested on: soybean; experiment: Test B pre/postemergence soybean; assay type: in vivo, Glycine max
How it was run: as §1

[15] = tested on: rape; experiment: Test B pre/postemergence rape; assay type: in vivo, Brassica napus
How it was run: as §1

[16] = tested on: bamyardgrass; experiment: Test B flood test barnyardgrass; assay type: in vivo, Echinochloa crus-galli
How it was run: as §2

[17] = Preemergence, Rate 62 g/ha, scale of 0 to 10 where 0 is no effect and 10 is complete control
[18] = Preemergence, Rate 125 g/ha, 0 is no effect, 10 is complete control
[19] = Preemergence, Rate 250 g/ha, scale 0 to 10, 0 is no effect, 10 is complete control
[20] = Preemergence, Rate 500 g/ha, scale 0 to 10 (0 no effect, 10 complete control)
[21] = Rate 250 g/ha, Postemergence, scale 0 to 10, 0 is no effect, 10 is complete control
[22] = Rate 500 g/ha, Postemergence, scale 0 to 10
[23] = Postemergence, Rate 125 g/ha, scale of 0 to 10 where 0 is no effect and 10 is complete control
[24] = Rate 62 g/ha, Postemergence, scale of 0 to 10 where 0 is no effect and 10 is complete control
[25] = Postemergence (flood test species), Rate 125 g/ha, scale of 0 to 10 where 0 is no effect and 10 is complete control
[26] = Rate 62 g/ha, Postemergence section, flood test species, scale of 0 to 10 where 0 is no effect and 10 is complete control
[27] = Rate 250 g/ha, Postemergence (flood test), scale 0 to 10, 0 is no effect, 10 is complete control
[28] = Rate 500 g/ha, listed under Postemergence (flood test species), scale 0 to 10

CC(C)N(C(=O)n1oc(=O)n(N(C)C)c1=O)c1ccc(F)cc1 [Compound 170]
7: Wild oats plant response rating [1, 17] | Velvetleaf plant response rating (0 to 10 scale) [2, 18] | Plant response rating, Nutsedge [11, 21] | Nutsedge plant response rating [11, 22] | Giant foxtail plant response rating [12, 23] | Soybean plant response rating [14, 22]
2: Morningglory plant response rating [4, 22] | Corn plant response rating (0 to 10 scale) [6, 18] | B. signalgrass plant response rating [7, 17] | Plant response rating, Sugarbeets [10, 21] | Nutsedge plant response rating [11, 23] | Nutsedge plant response rating [11, 24] | Soybean plant response rating [14, 24] | Rape plant response rating [15, 17]
0: Cocklebur plant response rating [3, 23] | Cocklebur plant response rating [3, 17] | Cocklebur plant response rating (0 to 10 scale) [3, 18] | Cocklebur plant response rating [3, 19] | Cocklebur plant response rating [3, 24] | Plant response rating, Cocklebur [3, 21] | Cocklebur plant response rating [3, 22] | Morningglory plant response rating [4, 17] | Morningglory plant response rating [4, 24] | Redroot pigweed plant response rating [5, 23] | Redroot pigweed plant response rating [5, 24] | Corn plant response rating [6, 23] | Corn plant response rating [6, 17] | Corn plant response rating [6, 24] | Plant response rating, Corn [6, 21] | Corn plant response rating [6, 22] | Sugarbeets plant response rating [10, 23] | Sugarbeets plant response rating [10, 24] | Nutsedge plant response rating [11, 17] | S. Flatsedge plant response rating [13, 25] | S. Flatsedge plant response rating [13, 26] | Plant response rating, S. Flatsedge [13, 27] | S. Flatsedge plant response rating [13, 28] | Soybean plant response rating [14, 17] | Rape plant response rating [15, 23] | Rape plant response rating [15, 24] | Plant response rating, Rape [15, 21] | Barnyardgrass plant response rating [16, 25] | Barnyardgrass plant response rating [16, 26] | Plant response rating, Barnyardgrass [16, 27] | Barnyardgrass plant response rating [16, 28]
1: Morningglory plant response rating [4, 23] | Plant response rating, Morningglory [4, 21] | Soybean plant response rating (0 to 10 scale) [14, 18]
3: Plant response rating, Wild oats [1, 21] | Velvetleaf plant response rating [2, 17] | Morningglory plant response rating (0 to 10 scale) [4, 18] | B. signalgrass plant response rating [7, 24] | Soybean plant response rating [14, 23] | Rape plant response rating [15, 22]
8: Crabgrass plant response rating [9, 17] | Crabgrass plant response rating [9, 24] | Sugarbeets plant response rating (0 to 10 scale) [10, 18] | Sugarbeets plant response rating [10, 19] | Plant response rating, Giant foxtail [12, 21] | Giant foxtail plant response rating [12, 22] | Rape plant response rating (0 to 10 scale) [15, 18]
5: Plant response rating, Velvetleaf [2, 21] | Velvetleaf plant response rating [2, 22]
9: Wild oats plant response rating (0 to 10 scale) [1, 18] | Cocklebur plant response rating [3, 20] | Corn plant response rating [6, 20] | B. signalgrass plant response rating (0 to 10 scale) [7, 18] | Plant response rating, B. signalgrass [7, 21] | Blackgrass plant response rating [8, 23] | Blackgrass plant response rating [8, 24] | Plant response rating, Blackgrass [8, 21] | Blackgrass plant response rating [8, 22] | Crabgrass plant response rating [9, 23] | Plant response rating, Crabgrass [9, 21] | Crabgrass plant response rating [9, 22] | Nutsedge plant response rating (0 to 10 scale) [11, 18] | Nutsedge plant response rating [11, 19] | Nutsedge plant response rating [11, 20] | Giant foxtail plant response rating [12, 17] | Soybean plant response rating [14, 20]
10: Wild oats plant response rating [1, 19] | Wild oats plant response rating [1, 20] | Velvetleaf plant response rating [2, 19] | Velvetleaf plant response rating [2, 20] | Morningglory plant response rating [4, 20] | Redroot pigweed plant response rating [5, 17] | Redroot pigweed plant response rating (0 to 10 scale) [5, 18] | Redroot pigweed plant response rating [5, 19] | Redroot pigweed plant response rating [5, 20] | B. signalgrass plant response rating [7, 19] | B. signalgrass plant response rating [7, 20] | B. signalgrass plant response rating ([7]; Rate 500 g/ha, Postemergence, scale 0 to 10, 0 no effect, 10 complete control) | Blackgrass plant response rating [8, 17] | Blackgrass plant response rating (0 to 10 scale) [8, 18] | Blackgrass plant response rating [8, 19] | Blackgrass plant response rating [8, 20] | Crabgrass plant response rating (0 to 10 scale) [9, 18] | Crabgrass plant response rating [9, 19] | Crabgrass plant response rating [9, 20] | Sugarbeets plant response rating [10, 20] | Giant foxtail plant response rating (0 to 10 scale) [12, 18] | Giant foxtail plant response rating [12, 19] | Giant foxtail plant response rating [12, 20] | Rape plant response rating [15, 19] | Rape plant response rating [15, 20]
4: Sugarbeets plant response rating [10, 17] | Sugarbeets plant response rating [10, 22] | Giant foxtail plant response rating [12, 24] | Soybean plant response rating [14, 19] | Plant response rating, Soybean [14, 21]
6: Wild oats plant response rating [1, 22] | Morningglory plant response rating [4, 19] | Plant response rating, Redroot pigweed [5, 21] | Redroot pigweed plant response rating [5, 22] | Corn plant response rating [6, 19] | B. signalgrass plant response rating [7, 23]
